# From PMC11876601 (Molecular Systems Biology, 2025)
# Read-outs that look alike come from different tables or passages of the source.
# How the values were obtained:
# Suit2-07 cells = test: Cell proliferation assay, GEM + ATR inhibitor (Incucyte confluence, 72 h); assay type: cell-based, human; conditions: Suit2-07; for EC50: Homo sapiens, 72 h; for Ratio: Response to Response vehicle (mean); for Ratio / Response: R1; for Curve bottom / Curve top: plateau of fitted curve, ratio drug/vehicle confluence;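 as to all read-outs here: Suit2-07 cells grown in 96-well plates at 37 °C, 5% CO2, raw 72 h confluence taken without normalizing to starting confluence, each experiment done in triplicate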
# Method: Cells were seeded at 5000 cells/well into 96-well flat bottom plates (Eppendorf) and allowed to attach overnight. […] Cells were incubated for 72 h at 37 °C and 5% CO2. Cell confluence readouts at 72 h were either normalized to their initial confluence using the Incucyte software (AsPC-1) or used without prior normalization (all others). […] Each experiment was performed in triplicates, the data was plotted as mean ± standard deviation (s.d.).
# MAP3K1 ; Q13233 = MAP3K1 ; Q13233 (Homo sapiens, UniProt Q13233); test: biochemical; parameters: species or system AsPC-1; Kinobeads competition pulldown in AsPC-1 lysate with LC-MS/MS label-free quantification; apparent Kd
# MAP3K1 ; Q13233, sequence (Q13233 whole entry): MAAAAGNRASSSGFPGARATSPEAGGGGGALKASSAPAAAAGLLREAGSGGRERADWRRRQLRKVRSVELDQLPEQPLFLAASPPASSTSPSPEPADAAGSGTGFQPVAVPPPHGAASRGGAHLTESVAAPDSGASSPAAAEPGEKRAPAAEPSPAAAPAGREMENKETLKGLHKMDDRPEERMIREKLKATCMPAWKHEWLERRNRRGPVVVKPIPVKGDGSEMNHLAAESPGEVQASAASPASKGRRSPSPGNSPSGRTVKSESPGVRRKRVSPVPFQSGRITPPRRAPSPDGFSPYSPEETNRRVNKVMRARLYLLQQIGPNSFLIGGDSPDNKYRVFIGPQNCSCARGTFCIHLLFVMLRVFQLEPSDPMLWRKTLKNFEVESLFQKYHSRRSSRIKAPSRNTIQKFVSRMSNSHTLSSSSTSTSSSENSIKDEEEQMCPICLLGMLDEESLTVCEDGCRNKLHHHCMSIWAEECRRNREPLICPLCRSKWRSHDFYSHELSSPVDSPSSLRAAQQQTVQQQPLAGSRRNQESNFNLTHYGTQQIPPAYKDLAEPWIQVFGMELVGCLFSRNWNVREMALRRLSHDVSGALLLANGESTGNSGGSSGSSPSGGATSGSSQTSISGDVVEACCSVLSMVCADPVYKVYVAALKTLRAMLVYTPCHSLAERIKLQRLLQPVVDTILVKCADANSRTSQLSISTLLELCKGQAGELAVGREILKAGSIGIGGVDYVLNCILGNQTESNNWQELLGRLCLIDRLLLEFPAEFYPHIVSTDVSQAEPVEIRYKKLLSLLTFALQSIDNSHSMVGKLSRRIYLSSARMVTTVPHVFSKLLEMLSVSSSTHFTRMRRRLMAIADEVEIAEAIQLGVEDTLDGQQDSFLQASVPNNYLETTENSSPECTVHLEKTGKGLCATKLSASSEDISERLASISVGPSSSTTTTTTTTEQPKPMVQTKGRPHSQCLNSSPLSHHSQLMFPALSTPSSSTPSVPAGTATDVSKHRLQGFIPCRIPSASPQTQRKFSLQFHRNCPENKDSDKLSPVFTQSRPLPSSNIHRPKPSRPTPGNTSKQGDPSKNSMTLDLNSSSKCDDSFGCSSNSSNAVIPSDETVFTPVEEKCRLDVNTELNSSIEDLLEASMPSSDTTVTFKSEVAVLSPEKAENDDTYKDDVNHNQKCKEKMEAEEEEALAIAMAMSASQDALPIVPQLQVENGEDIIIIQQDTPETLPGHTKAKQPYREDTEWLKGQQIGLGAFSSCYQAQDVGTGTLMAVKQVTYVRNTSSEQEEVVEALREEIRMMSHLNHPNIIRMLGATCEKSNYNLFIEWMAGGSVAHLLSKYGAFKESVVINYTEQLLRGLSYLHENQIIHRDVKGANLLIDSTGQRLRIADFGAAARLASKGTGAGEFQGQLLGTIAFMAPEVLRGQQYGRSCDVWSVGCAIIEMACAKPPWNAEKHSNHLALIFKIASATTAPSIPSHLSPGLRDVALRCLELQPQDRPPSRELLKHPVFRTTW
# Method: (§1) This was followed by incubation with Kinobeads ε (17.5 µl of settled beads) for 30 min at 4 °C to enrich kinases. […] Enriched proteins were reduced with 50 mM DTT in 8 M urea, 40 mM Tris-HCl, pH 7.4 for 30 min at room temperature, and alkylated with 55 mM chloroacetamide. After reducing the urea concentration to 1–2 M, proteins were digested with trypsin at 37 °C for 16 h. Subsequently, eluted peptides were desalted using SepPak tC18 µElution plates (Waters), freeze-dried by vacuum centrifugation, and stored at −20 °C. Proteins were filtered by potential contaminants, reversed hits and proteins identified only by site. Residual binding of proteins was calculated from LFQ intensities as the ratio between drug doses and vehicle. […] Only kinases quantified with at least 4 unique peptides in the vehicle experiment were considered. Potential targets were further curated through manual inspection of dose-dependent reduction in MS/MS and unique peptide counts.
# GSK3A ; P49840 = GSK3A ; P49840 (Homo sapiens, UniProt P49840); test: biochemical; parameters: species or system AsPC-1; Kinobeads competition pulldown in AsPC-1 lysate with LC-MS/MS label-free quantification; apparent Kd
# GSK3A ; P49840, sequence (P49840 whole entry): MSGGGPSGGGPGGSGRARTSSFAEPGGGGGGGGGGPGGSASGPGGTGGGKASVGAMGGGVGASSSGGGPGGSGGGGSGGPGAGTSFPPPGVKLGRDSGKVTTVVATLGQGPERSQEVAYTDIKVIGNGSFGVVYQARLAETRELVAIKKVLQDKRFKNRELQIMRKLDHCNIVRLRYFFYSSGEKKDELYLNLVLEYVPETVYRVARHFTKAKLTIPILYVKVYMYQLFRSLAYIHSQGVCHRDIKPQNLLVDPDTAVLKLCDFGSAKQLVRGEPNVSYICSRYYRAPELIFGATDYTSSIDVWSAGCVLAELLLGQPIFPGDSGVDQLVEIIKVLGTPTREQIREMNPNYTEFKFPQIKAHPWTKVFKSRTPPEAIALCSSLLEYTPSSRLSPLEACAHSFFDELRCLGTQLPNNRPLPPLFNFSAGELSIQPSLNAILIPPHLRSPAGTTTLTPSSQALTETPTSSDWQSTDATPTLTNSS
# Method: as §1
# [1] = GEM+ATRi_dose3, GEM 30 nM + ATRi 30 nM
# [2] = experiment ATRi (ATR inhibitor alone)
structure (smiles),measurement,setting,value
Nc1nn2cc(F)cnc2c1C(=O)Nc1cncc(F)c1N1CCC(C(=O)N2CCN(C3COC3)CC2)CC1 [Gartisertib],EC50,"Suit2-07 cells; experiment ATRi (ATR inhibitor alone), -log10 of EC50 [M], read-out: pEC50 (converted)",3.39e-07 M
same,EC50,"Suit2-07 cells; experiment ATRi (ATR inhibitor alone), mean (one replicate), read-out: EC50 mean",3.39e-07 M
same,EC50,"Suit2-07 cells; experiment ATRi (ATR inhibitor alone), replicate R1, read-out: EC50",3.39e-07 M
same,Ratio,"Suit2-07 cells; GEM+ATRi_dose1, GEM 0 nM + ATRi 10 nM",1.02
same,Ratio,"Suit2-07 cells; GEM+ATRi_dose1, GEM 1 nM + ATRi 10 nM",1.01
same,Ratio,"Suit2-07 cells; GEM+ATRi_dose1, GEM 3 nM + ATRi 10 nM",0.93
same,Ratio,"Suit2-07 cells; GEM+ATRi_dose1, GEM 10 nM + ATRi 10 nM",0.23
same,Ratio,"Suit2-07 cells; GEM+ATRi_dose1, GEM 30 nM + ATRi 10 nM",0.15
same,Ratio,"Suit2-07 cells; GEM+ATRi_dose1, GEM 100 nM + ATRi 10 nM",0.15
same,Ratio,"Suit2-07 cells; GEM+ATRi_dose1, GEM 300 nM + ATRi 10 nM",0.12
same,Ratio,"Suit2-07 cells; GEM+ATRi_dose1, GEM 1000 nM + ATRi 10 nM",0.11
same,Ratio,"Suit2-07 cells; GEM+ATRi_dose1, GEM 3000 nM + ATRi 10 nM",0.09
same,Ratio,"Suit2-07 cells; GEM+ATRi_dose2, GEM 0 nM + ATRi 3 nM",0.98
same,Ratio,"Suit2-07 cells; GEM+ATRi_dose2, GEM 1 nM + ATRi 3 nM",0.98
same,Ratio,"Suit2-07 cells; GEM+ATRi_dose2, GEM 3 nM + ATRi 3 nM",0.26
same,Ratio,"Suit2-07 cells; GEM+ATRi_dose2, GEM 10 nM + ATRi 3 nM",0.16
same,Ratio,"Suit2-07 cells; GEM+ATRi_dose2, GEM 30 nM + ATRi 3 nM",0.13
same,Ratio,"Suit2-07 cells; GEM+ATRi_dose2, GEM 100 nM + ATRi 3 nM",0.13
same,Ratio,"Suit2-07 cells; GEM+ATRi_dose2, GEM 300 nM + ATRi 3 nM",0.11
same,Ratio,"Suit2-07 cells; GEM+ATRi_dose2, GEM 1000 nM + ATRi 3 nM",0.11
same,Ratio,"Suit2-07 cells; GEM+ATRi_dose2, GEM 3000 nM + ATRi 3 nM",0.09
same,Ratio,"Suit2-07 cells; GEM+ATRi_dose3, GEM 0 nM + ATRi 30 nM",0.97
same,Ratio,"Suit2-07 cells; GEM+ATRi_dose3, GEM 1 nM + ATRi 30 nM",0.93
same,Ratio,"Suit2-07 cells; GEM+ATRi_dose3, GEM 3 nM + ATRi 30 nM",0.37
same,Ratio,"Suit2-07 cells; GEM+ATRi_dose3, GEM 10 nM + ATRi 30 nM",0.18
same,Ratio,Suit2-07 cells; [1],0.14
same,Ratio,"Suit2-07 cells; GEM+ATRi_dose3, GEM 100 nM + ATRi 30 nM",0.13
same,Ratio,"Suit2-07 cells; GEM+ATRi_dose3, GEM 300 nM + ATRi 30 nM",0.12
same,Ratio,"Suit2-07 cells; GEM+ATRi_dose3, GEM 1000 nM + ATRi 30 nM",0.13
same,Ratio,"Suit2-07 cells; GEM+ATRi_dose3, GEM 3000 nM + ATRi 30 nM",0.08
same,Ratio,"Suit2-07 cells; experiment ATRi, ATRi 3 nM, GEM 0 nM",1.02
same,Ratio,"Suit2-07 cells; experiment ATRi, ATRi 10 nM, GEM 0 nM",1.01
same,Ratio,"Suit2-07 cells; experiment ATRi, ATRi 30 nM, GEM 0 nM",0.98
same,Ratio,"Suit2-07 cells; experiment ATRi, ATRi 100 nM, GEM 0 nM",0.96
same,Ratio,"Suit2-07 cells; experiment ATRi, ATRi 300 nM, GEM 0 nM",0.63
same,Ratio,"Suit2-07 cells; experiment ATRi, ATRi 1000 nM, GEM 0 nM",0.22
same,Ratio,"Suit2-07 cells; experiment ATRi, ATRi 3000 nM, GEM 0 nM",0.19
same,Ratio,"Suit2-07 cells; experiment ATRi, ATRi 10000 nM, GEM 0 nM",0.12
same,Response,"Suit2-07 cells; GEM+ATRi_dose1, GEM 0 nM + ATRi 10 nM, in % (unit assumed)",99.22
same,Response,"Suit2-07 cells; GEM+ATRi_dose1, GEM 1 nM + ATRi 10 nM, in % (unit assumed)",98.36
same,Response,"Suit2-07 cells; GEM+ATRi_dose1, GEM 3 nM + ATRi 10 nM, in % (unit assumed)",90.74
same,Response,"Suit2-07 cells; GEM+ATRi_dose1, GEM 10 nM + ATRi 10 nM, in % (unit assumed)",21.98
same,Response,"Suit2-07 cells; GEM+ATRi_dose1, GEM 30 nM + ATRi 10 nM, in % (unit assumed)",14.67
same,Response,"Suit2-07 cells; GEM+ATRi_dose1, GEM 100 nM + ATRi 10 nM, in % (unit assumed)",14.71
same,Response,"Suit2-07 cells; GEM+ATRi_dose1, GEM 300 nM + ATRi 10 nM, in % (unit assumed)",11.45
same,Response,"Suit2-07 cells; GEM+ATRi_dose1, GEM 1000 nM + ATRi 10 nM, in % (unit assumed)",10.53
same,Response,"Suit2-07 cells; GEM+ATRi_dose1, GEM 3000 nM + ATRi 10 nM, in % (unit assumed)",8.70
same,Response,"Suit2-07 cells; GEM+ATRi_dose2, GEM 0 nM + ATRi 3 nM, in % (unit assumed)",95.38
same,Response,"Suit2-07 cells; GEM+ATRi_dose2, GEM 1 nM + ATRi 3 nM, in % (unit assumed)",96.21
same,Response,"Suit2-07 cells; GEM+ATRi_dose2, GEM 3 nM + ATRi 3 nM, in % (unit assumed)",25.36
same,Response,"Suit2-07 cells; GEM+ATRi_dose2, GEM 10 nM + ATRi 3 nM, in % (unit assumed)",15.98
same,Response,"Suit2-07 cells; GEM+ATRi_dose2, GEM 30 nM + ATRi 3 nM, in % (unit assumed)",13.06
same,Response,"Suit2-07 cells; GEM+ATRi_dose2, GEM 100 nM + ATRi 3 nM, in % (unit assumed)",13.09
same,Response,"Suit2-07 cells; GEM+ATRi_dose2, GEM 300 nM + ATRi 3 nM, in % (unit assumed)",10.34
same,Response,"Suit2-07 cells; GEM+ATRi_dose2, GEM 1000 nM + ATRi 3 nM, in % (unit assumed)",10.34
same,Response,"Suit2-07 cells; GEM+ATRi_dose2, GEM 3000 nM + ATRi 3 nM, in % (unit assumed)",9.00
same,Response,"Suit2-07 cells; GEM+ATRi_dose3, GEM 0 nM + ATRi 30 nM, in % (unit assumed)",94.90
same,Response,"Suit2-07 cells; GEM+ATRi_dose3, GEM 1 nM + ATRi 30 nM, in % (unit assumed)",91.25
same,Response,"Suit2-07 cells; GEM+ATRi_dose3, GEM 3 nM + ATRi 30 nM, in % (unit assumed)",36.47
same,Response,"Suit2-07 cells; GEM+ATRi_dose3, GEM 10 nM + ATRi 30 nM, in % (unit assumed)",17.41
same,Response,Suit2-07 cells; [1],13.78
same,Response,"Suit2-07 cells; GEM+ATRi_dose3, GEM 100 nM + ATRi 30 nM, in % (unit assumed)",12.30
same,Response,"Suit2-07 cells; GEM+ATRi_dose3, GEM 300 nM + ATRi 30 nM, in % (unit assumed)",12.12
same,Response,"Suit2-07 cells; GEM+ATRi_dose3, GEM 1000 nM + ATRi 30 nM, in % (unit assumed)",12.34
same,Response,"Suit2-07 cells; GEM+ATRi_dose3, GEM 3000 nM + ATRi 30 nM, in % (unit assumed)",7.88
same,Curve bottom,Suit2-07 cells; [2],1.01
same,Curve top,Suit2-07 cells; [2],0.15
same,Response,"Suit2-07 cells; experiment ATRi, ATRi 3 nM, GEM 0 nM, in % (unit assumed)",99.33
same,Response,"Suit2-07 cells; experiment ATRi, ATRi 10 nM, GEM 0 nM, in % (unit assumed)",98.82
same,Response,"Suit2-07 cells; experiment ATRi, ATRi 30 nM, GEM 0 nM, in % (unit assumed)",95.35
same,Response,"Suit2-07 cells; experiment ATRi, ATRi 100 nM, GEM 0 nM, in % (unit assumed)",93.53
same,Response,"Suit2-07 cells; experiment ATRi, ATRi 300 nM, GEM 0 nM, in % (unit assumed)",61.81
same,Response,"Suit2-07 cells; experiment ATRi, ATRi 1000 nM, GEM 0 nM, in % (unit assumed)",21.20
same,Response,"Suit2-07 cells; experiment ATRi, ATRi 3000 nM, GEM 0 nM, in % (unit assumed)",18.17
same,Response,"Suit2-07 cells; experiment ATRi, ATRi 10000 nM, GEM 0 nM, in % (unit assumed)",11.75
same,Curve bottom,Suit2-07 cells; experiment GEM+ATRi_dose1,1.01
same,Curve top,Suit2-07 cells; experiment GEM+ATRi_dose1,0.12
same,Curve bottom,Suit2-07 cells; experiment GEM+ATRi_dose2,0.98
same,Curve top,Suit2-07 cells; experiment GEM+ATRi_dose2,0.12
same,Curve bottom,Suit2-07 cells; experiment GEM+ATRi_dose3,0.98
same,Curve top,Suit2-07 cells; experiment GEM+ATRi_dose3,0.13
same,Kd,MAP3K1 ; Q13233,422 nM
same,Kd,GSK3A ; P49840,0.719 nM
